How the values were obtained:
[1] = tested on: spleen cells from Balb/c mice co-incubated with spleen cells from CBA mice; assay: Two-way MLR (murine mixed lymphocyte reaction); type: cell-based; conditions: Mus musculus, 96 h, 4 days co-incubation, labelled precursor incorporation into DNA, read-out: IC50, proliferative response in two-way MLR
Method: 1. Proliferative Response Of Lymphocvtes to Allogenic Stimulation
Two-way MLR (Murine Mixed Lymphocyte Reaction)
Spleen cells (2×10^5) from Balb/c mice (female, 8-10 weeks) are co-incubated for 4 days with 2×10^5 spleen cells from CBA mice (female, 8-10 weeks). The allogenic cells induce a proliferative response in the responder spleen cell population which is measured by labelled precursor incorporation into the DNA.

[2] = tested on: LPS-stimulated Murine B-cells; assay: LPS-stimulated murine B-cell proliferation; type: cell-based, CBA mice; conditions: Mus musculus, 48 hours with 50 μg/ml LPS, labelled precursor incorporation into DNA, read-out: IC50, inhibition of B-cell proliferation
Method: LPS-stimulated Murine B-cells
Spleen cells (2×10^5) from CBA mice are incubated for 48 hours with 50 μg/ml LPS plus test compound. Proliferation is measured by labelled precursor incorporation into DNA.

[3] = Cytotoxic and cytostatic activity in vitro using the THP1 cell line (MTT); type: cell-based; conditions: human, thp1 cells; after 24 h incubation, IFNγ 100 U/ml and LPS 5 μg/ml; read-out: IC50, cytotoxicity THP1 (MTT)
Method: 3. Cytotoxic and Cytostatic Activity in Vitro Using the THP1 Cell Line
Cytotoxicity is determined using the human monocytic cell line THP1 (5×10^4 cells/well) which are incubated in the presence of IFNγ (100 U/ml)and LPS (5 μg/ml) plus test compound (up to 10 μM) for 24 to 72 h at 37° C. Living cells are quantified using the colourimetric read-out MTT which measures mitochondrial dehydrogenase enzymatic activity in living cells (Mossman 1983). Macrolides of the invention, e.g. compounds of formula IX and their pharmaceutically acceptable salts, e.g. Sanglifehrins A, B, C and D, have IC50 s of about 1000-5000 nM after 24 h incubation in this assay.

[4] = tested on: Tumour Necrosis Factor (TNF) α release by peripheral blood mononuclear cells; assay: TNF release by human peripheral blood mononuclear cells; type: cell-based; conditions: PBMC, IFNγ 100 U/ml and LPS 5 μg/ml, 3 h incubation, ELISA
Method: 4. TNF Release by Human Peripheral Blood Mononuclear Cells
Mononuclear cells are prepared from the peripheral blood of healthy volunteers using Ficoll-Hypaque density separation according to the method of Hansell et al. (1991). Cells (10^5 cells/well in 200 μl RPMI 10% FCS by volume) are incubated with serial dilutions of the test compounds for 30 min at 37° C. prior to the addition of stimulus. Interferon γ (100 U/ml) and LPS (5 μg/ml) are used as stimuli to induce Tumour Necrosis Factor (TNF) α release by peripheral blood mononuclear cells. After 3 h incubation, the cells are centrifuged (1200 rpm for 10 min) and the supernatants are collected. The amount of TNF present in the cell supernatants is determined using a commercially available enzyme-linked immunosorbent assay kit.

[5] = biological target: human recombinant cyclophilin A (Homo sapiens, UniProt P62937); assay: Cyclophilin binding assay (competitive ELISA / competitive binding test); conditions: competition with coated BSA-cyclosporin A
Source text: 5. Cyclophilin Binding Assay
A suitable cyclophilin binding assay is the competitive ELISA test described by Quesniaux in Eur. J. Immunol. 1987 17 1359-1365.

FK binding protein = FK binding protein (Homo sapiens, UniProt P62942); assay: FK binding protein binding (standard test); conditions: standard tests
calcineurin = assay: Calcineurin activity (standard test); type: biochemical; conditions: standard tests
[6] = tested on: Localised Graft-versus-Host (GvH) reaction; assay: Localised graft-versus-host (GvH) reaction in the rat; type: in vivo; conditions: dose of about 1 mg/kg s.c., 4 consecutive days, lymph node weight on day 7
Method: 6. Localised Graft-versus-Host (GvH) Reaction in the Rat
Spleen cells (1×10^7) from 6 week old female Wistar/Furth (WF) rats are injected subcutaneously on day 0 into the left hind-paw of female (F344×WF)F1 rats weighing about 100 g. Animals are treated for 4 consecutive days and the popliteal lymph nodes are removed and weighed on day 7. The difference in weight between the two lymph nodes is taken as the parameter for evaluating the reaction.

DTH footpad swelling = assay: DTH induced by SRBC-TH cells; type: in vivo, C57 BL/6 mice; conditions: doses of the order of 5 mg/kg s.c., footpad thickness after 24 hours
Method: 7. DTH Induced by SRBC-TH Cells
50 μl of the SRBC cell suspension (diluted 1:1 v/v with PBS) is injected s.c. into the left hind footpad (to measure non specific increase in footpad swelling due to the injection procedure). Right and left hind footpad thickness is measured 24 hours later.
The percent increase in thickness of the right footpad over the left footpad (z) is calculated. Thickness of right footpad=x. thickness of left footpad=y; % specific increase=z

heart allograft [7] = assay: Mouse heart allotransplantation (BALB/c to C3H); type: in vivo; conditions: doses of the order of 30 mg/kg/day, s.c. Alzet osmotic minipumps
Method: (§1) 8. Rat/Mouse Heart Allotransplantation
(§2) The in vivo efficacy of macrolides of the invention is assessed in rat and mouse heart allotransplantation using Alzet osmotic minipumps for s.c. administration.

heart allograft [8] = assay: Rat heart allotransplantation (DA to Lewis); type: in vivo; conditions: in combination with suboptimal doses of cyclosporin A
Method: as §1, §2

Sequence of FK binding protein (P62942 whole entry): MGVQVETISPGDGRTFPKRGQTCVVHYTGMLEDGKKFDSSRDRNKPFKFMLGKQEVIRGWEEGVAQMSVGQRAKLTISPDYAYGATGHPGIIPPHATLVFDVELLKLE
Sequence of human recombinant cyclophilin A (P62937 whole entry): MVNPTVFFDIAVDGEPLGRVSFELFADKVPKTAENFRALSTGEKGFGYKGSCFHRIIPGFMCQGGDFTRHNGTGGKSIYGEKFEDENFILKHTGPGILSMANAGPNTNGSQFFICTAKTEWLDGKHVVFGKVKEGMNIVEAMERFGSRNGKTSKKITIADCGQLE

Structure (SMILES) | IC50 [1] | IC50 [2] | CC50 at 24 h [3] | IC50 [4] | IC50 [5] | FK binding protein binding activity (FK binding protein) | inhibition of calcineurin activity (calcineurin) | inhibition of the GvH reaction [6] | reduction of swelling of the DTH mouse (DTH footpad swelling) | graft survival (in words), mouse heart allotransplantation (heart allograft [7]) | graft survival (in words), rat heart allotransplantation (heart allograft [8])
CCC1CC(C)C2(NC1=O)OC(CC(O)C(C)CCC=CC=C(C)C1CC=CC=CC(O)C(C)C3OC(C)(OC)CCC3C(=O)NC(C(C)C)C(=O)NC(Cc3cccc(O)c3)C(=O)N3CCCC(N3)C(=O)O1)C(C)C(O)C2C (stereo not drawn) [Sanglifehrin C] | 0.03 to 0.2 µM | 40 to 100 µM | 1 to 5 µM | 0.2 to 1 µM | 0.01 to 0.1 µM | do not have FK binding protein binding activity | do not inhibit calcineurin activity | up to 30% | up to 50% | prolong graft survival | prolonged graft survival
CC[C@H]1C[C@H](C)[C@@]2(NC1=O)O[C@@H](C[C@H](O)[C@@H](C)CC/C=C/C=C(\C)[C@@H]1C/C=C/C=C/[C@H](O)[C@H](C)[C@@H](O)[C@@H](CCC(C)=O)C(=O)N[C@@H](C(C)C)C(=O)N[C@@H](Cc3cccc(O)c3)C(=O)N3CCC[C@H](N3)C(=O)O1)[C@H](C)[C@H](O)[C@@H]2C [Sanglifehrin A] | 0.03 to 0.2 µM | 40 to 100 µM | 1 to 5 µM | 0.2 to 1 µM |  | do not have FK binding protein binding activity |  |  | up to 50% | prolong graft survival | prolonged graft survival
CCC1CC(C)C2(NC1=O)OC(CC(O)C(C)CCC=CC=C(C)C1CC=CC=CC(O)C(C)C(O)C(CCC(C)=O)C(=O)NC(C(C)C)C(=O)NC(Cc3cccc(O)c3)C(=O)N3CCCC(N3)C(=O)O1)C(C)C=C2C (stereo not drawn) [Sanglifehrin B] | 0.03 to 0.2 µM | 40 to 100 µM | 1 to 5 µM | 0.2 to 1 µM | 0.01 to 0.1 µM | do not have FK binding protein binding activity | do not inhibit calcineurin activity | up to 30% | up to 50% | prolong graft survival | prolonged graft survival
